The values below come from PubChem BioAssay (NCI).

“And” between values parts separate entries of the source, which are not always exact repeats. Equal entries are not always repeated.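 Grown in 96-well plates, cells were treated for 48 hours with each compound at five concentrations. Insufficient inhibition: endpoint recorded as highest concentration tested. Here, GI50 denotes the concentration required for 50% inhibition of growth. TGI marks complete inhibition of growth.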

Among the test systems are UACC-257 melanoma; OVCAR-5 ovarian; SF-539 CNS; A549 NSCLC; MDA-MB-435; IGROV1 ovarian; HS 578T breast; HCT-15 colon; ACHN renal; RXF 393 renal.
What all share (experiment): NCI tumour cell line growth inhibition, 48 h

`COc1cc(C2=NOC(c3cc(OC)c(OC)c(OC)c3)C2)ccc1OCCCCOc1cc2c(cc1OC)C(=O)N1CCC[C@H]1C=N2` (stereo partly specified): the GI50 is 0.286 µM in the assay on UACC-257 melanoma; 0.4 µM in the assay on OVCAR-5 ovarian; 0.277 µM in the assay on SF-539 CNS; 0.348 µM with A549 NSCLC; 0.179 µM in the assay with MDA-MB-435; 0.243 µM in the assay with IGROV1 ovarian. For the same compound, the GI50 in the assay with HS 578T breast is 0.234 µM; with HCT-15 colon, 1.46 µM; with ACHN renal it was 0.243 µM. Besides, the TGI in the assay on UACC-257 melanoma was determined as 0.727 µM; in the assay on OVCAR-5 ovarian, 1.26 µM; with SF-539 CNS it was 0.894 µM; in the assay with A549 NSCLC, 11.9 µM; in the assay with MDA-MB-435, 0.371 µM; in the assay with IGROV1 ovarian it was 0.537 µM. Also, the TGI in the assay with HS 578T breast came to 0.681 µM; in the assay on HCT-15 colon it was 5.43 µM; with ACHN renal it was 0.523 µM.
Consider `O=C1c2cc(Cl)ccc2S(=O)(=O)c2c(NCCCNCCO)nc3ccccc3c21`, for which the GI50 in the assay on UACC-257 melanoma was 1.55 µM; with OVCAR-5 ovarian, 1.65 µM; in the assay on SF-539 CNS, 1.6 µM; in the assay with A549 NSCLC it was 3.22 µM; in the assay with MDA-MB-435, 1.5 µM; in the assay with IGROV1 ovarian, 2.88 µM. The GI50 was 2.68 µM with HS 578T breast, 0.926 µM in the assay with HCT-15 colon and 0.493 µM in the assay with ACHN renal. The TGI in the assay with UACC-257 melanoma is 3.42 µM; in the assay with OVCAR-5 ovarian, 3.32 µM; with SF-539 CNS it was 3.13 µM; with A549 NSCLC, 12.3 µM; in the assay with MDA-MB-435, 3.13 µM; in the assay with IGROV1 ovarian, 9.56 µM. Besides, the TGI was determined as 14.9 µM with HS 578T breast, 2.35 µM in the assay on HCT-15 colon and 1.63 µM in the assay on ACHN renal.
Turning to `C[C@@H]1OC(O)[C@@H](F)[C@H](O)[C@@H]1O` (stereo partly specified), the GI50 with UACC-257 melanoma, in the assay with OVCAR-5 ovarian, with SF-539 CNS, with A549 NSCLC, in the assay on MDA-MB-435 and in the assay with IGROV1 ovarian was above 100 µM throughout. Besides, the GI50 in the assay on HS 578T breast, with HCT-15 colon and in the assay with ACHN renal was above 100 µM each time. In addition, the TGI in the assay with UACC-257 melanoma, in the assay with OVCAR-5 ovarian, in the assay on SF-539 CNS, in the assay with A549 NSCLC, in the assay on MDA-MB-435 and in the assay on IGROV1 ovarian was above 100 µM throughout. Moreover, the TGI in the assay with HS 578T breast, in the assay on HCT-15 colon and in the assay with ACHN renal was above 100 µM throughout.
Consider `Oc1ccc(CN2CCC(N3CCCCC3)CC2)c2cccnc12`, for which the GI50 in the assay with UACC-257 melanoma was 27.6 µM; in the assay on OVCAR-5 ovarian, 45.4 µM; in the assay on RXF 393 renal, 11.7 µM; in the assay on A549 NSCLC it was 6.68 µM; in the assay on MDA-MB-435, 4.63 µM; in the assay with IGROV1 ovarian, 23.4 µM. For the same compound, the GI50 in the assay on HS 578T breast was 17.6 µM; with HCT-15 colon it was 5.83 µM; in the assay with ACHN renal, 5.95 µM. In addition, the TGI in the assay on UACC-257 melanoma is 99.3 µM; in the assay with OVCAR-5 ovarian, above 100 µM; in the assay on RXF 393 renal, above 100 µM; in the assay with A549 NSCLC, above 100 µM; in the assay on MDA-MB-435, above 100 µM; in the assay with IGROV1 ovarian, above 100 µM. The TGI in the assay on HS 578T breast, with HCT-15 colon and with ACHN renal was above 100 µM throughout.
For `CCC(C)c1c(Cl)nc(Cl)nc1Cl` (stereo unspecified), the TGI was 33.2 µM in the assay on OVCAR-5 ovarian; 20.7 µM with RXF 393 renal; 58.8 µM in the assay with SF-539 CNS; 9.1 µM in the assay on MDA-MB-435; 34.5 µM in the assay with IGROV1 ovarian; above 100 µM with HS 578T breast. For the same compound, the values for the TGI in the assay on HCT-15 colon and with ACHN renal were 35.3 µM and 11.9 µM, respectively.
Take `CC1=CC(=Nc2ccc(N(CCCl)CCCl)cc2)C=C(C)C1=O`: the GI50 is 1.49 µM in the assay on UACC-257 melanoma; 2.72 µM with OVCAR-5 ovarian; 0.448 µM in the assay on SF-539 CNS; 1.61 µM in the assay with A549 NSCLC; 1.67 µM with MDA-MB-435; 2.08 µM in the assay on HS 578T breast. The GI50 was 1.63 µM with HCT-15 colon and 0.29 µM in the assay on ACHN renal. Further, the TGI in the assay with UACC-257 melanoma amounted to 5.12 µM; in the assay on OVCAR-5 ovarian, 11.3 µM; in the assay with SF-539 CNS it was 8.71 µM; with A549 NSCLC it was 24 µM; in the assay with MDA-MB-435, 4.55 µM; in the assay on HS 578T breast it was 7.73 µM. For the same compound, the TGI amounted to 11 µM in the assay with HCT-15 colon and 1.61 µM in the assay with ACHN renal.
Turning to `COc1cc(C2NC(=O)c3ccccc3N2)ccc1OCCCCCOc1c(OC)cc(C2=NOC(c3cc(OC)c(OC)c(OC)c3)C2)cc1OC` (stereo unspecified), the GI50 is 0.296 µM in the assay with UACC-257 melanoma; 33.9 µM with OVCAR-5 ovarian; 19.4 µM in the assay with SF-539 CNS; 2.25 µM in the assay on A549 NSCLC; 0.499 µM in the assay with MDA-MB-435; 0.601 µM in the assay with IGROV1 ovarian. In addition, the GI50 in the assay on HS 578T breast was 15.7 µM; in the assay with HCT-15 colon, 3.34 µM; in the assay with ACHN renal it was 0.556 µM. Besides, the TGI with UACC-257 melanoma is 69.9 µM; in the assay on OVCAR-5 ovarian, above 94.3 µM; in the assay with SF-539 CNS, 84.7 µM; in the assay with A549 NSCLC it was 97.7 µM; with MDA-MB-435 it was above 100 µM; in the assay with IGROV1 ovarian it was above 71 µM. Besides, the TGI was above 82 µM with HS 578T breast, above 100 µM in the assay on HCT-15 colon and above 100 µM with ACHN renal.
Turning to `CC[C@@H]1C(=O)N(C)c2cnc(Nc3ccc(C(=O)NC4CCN(C)CC4)cc3OC)nc2N1C1CCCC1`, the GI50 is 0.903 µM and 0.103 µM in the assay on UACC-257 melanoma; 0.00408 µM and < 0.01 µM with OVCAR-5 ovarian; 0.0047 µM and < 0.01 µM with RXF 393 renal; 0.0269 µM and 0.0238 µM in the assay on SF-539 CNS; 0.00602 µM and < 0.0113 µM in the assay with A549 NSCLC; 0.00842 µM and 0.0188 µM in the assay on HS 578T breast. Besides, the GI50 in the assay with HCT-15 colon is 0.186 µM and 0.219 µM; in the assay with ACHN renal it was 0.148 µM and 0.0895 µM. Moreover, the TGI in the assay with UACC-257 melanoma was > 5.26 µM and 1.98 µM; with OVCAR-5 ovarian, > 10 µM and 11.8 µM; in the assay on RXF 393 renal it was 0.627 µM and 0.576 µM; with SF-539 CNS it was 0.352 µM and 0.583 µM; in the assay with A549 NSCLC it was > 10 µM and 3.5 µM; in the assay on IGROV1 ovarian it was 4.15 µM and 11.8 µM. Also, the TGI was 0.394 µM and 0.475 µM in the assay on HS 578T breast; > 4.57 µM and 6.38 µM in the assay on HCT-15 colon; > 5.11 µM and 2.24 µM in the assay on ACHN renal.
